Measured values: article PMC9737772, “Synthesis and Anti-Inflammatory Activity of 1-Methylhydantoin Cinnamoyl Imides” (Molecules, 2022)
“Also recorded” adds a separate entry of the source.

Assays:
[1] = biological target: T1, ovine cyclooxygenase-1 (COX-1) (Ovis aries, UniProt P05979); experiment: In vitro COX inhibition assay (enzyme immunoassay kit), COX-1; assay type: biochemical; conditions: ovine COX-1, enzyme immunoassay kit
T1 construct: purchased Cayman Chemical 560131
T1 sequence (P05979 25-600): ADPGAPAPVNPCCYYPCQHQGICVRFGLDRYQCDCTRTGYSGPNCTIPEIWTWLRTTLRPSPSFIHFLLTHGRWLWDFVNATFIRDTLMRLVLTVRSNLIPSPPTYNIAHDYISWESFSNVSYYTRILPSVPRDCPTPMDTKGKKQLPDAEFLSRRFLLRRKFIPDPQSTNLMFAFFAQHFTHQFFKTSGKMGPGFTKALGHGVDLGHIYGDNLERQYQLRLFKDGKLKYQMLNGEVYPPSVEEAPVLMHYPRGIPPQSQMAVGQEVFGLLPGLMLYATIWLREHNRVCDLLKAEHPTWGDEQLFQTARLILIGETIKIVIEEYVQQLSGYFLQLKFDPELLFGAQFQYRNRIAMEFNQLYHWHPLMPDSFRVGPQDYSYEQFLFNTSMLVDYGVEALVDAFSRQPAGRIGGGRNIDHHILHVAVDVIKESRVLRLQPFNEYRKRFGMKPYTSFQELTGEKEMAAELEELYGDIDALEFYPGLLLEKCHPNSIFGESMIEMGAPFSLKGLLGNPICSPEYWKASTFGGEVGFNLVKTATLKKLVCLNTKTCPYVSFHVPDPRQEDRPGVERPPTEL
Experimental: The inhibition ability of 1-methylhydantoin cinnamic imides to ovine cyclooxygenase-1 (COX-1) and cyclooxygenase-2 (COX-2) was determined using an enzyme immunoassay kit. […] The Cell Counting Kit-8 (CCK-8) method was used to detect the cytotoxicity of the five target compounds (1–5) on lipopolysaccharide (LPS)-induced RAW264.7 cells. When the concentrations of compounds 1, 3 and 5 are lower than 20 μM, and when the concentrations of compounds 2 and 4 are lower than 80 μM, the survival rate of RAW264.7 cells is more than 95%, which has no obvious damage to cell survival and can be used for subsequent in vitro anti-inflammatory activity experiments to provide the basis.
The inhibition ability of ovine COX-1 and COX-2 was determined using an enzyme immunoassay kit (560131, Cayman Chemical, Ann Arbor, MI, USA) following the manufacturer’s instructions.

[2] = tested on: NO release from RAW264.7 cells induced by LPS; experiment: NO content in supernatant of LPS-induced RAW264.7 cells (Griess); assay type: cell-based, mouse; conditions: for inhibition of NO production: 80 μM, LPS 1 ug/mL, 24 h, RAW264.7; for inhibition of NO release: LPS-stimulated RAW264.7, concentration not stated
Experimental: NO is an important indicator to predict the anti-inflammatory effects of drugs. It has been identified as a proinflammatory cytokine in various inflammatory diseases. NO can induce vasodilation, recruit neutrophils and […] the activation of mast cells, leading to tissue damage. It is essential to reduce the production of NO for inflammatory release. To explore the anti-inflammatory effects of the five compounds, the LPS-induced inflammatory response of RAW264.7 cells was carried out. The NO content in the cell supernatant was measured by the Griess method to evaluate the inhibitory effects of these five compounds on NO production.
RAW264.7 mouse macrophages were purchased from Zhongqiao Xinzhou and cultured in DMEM supplemented with 10% fetal bovine serum (FBS) and 1% penicillin/streptomycin in a 37 °C, 5% CO2 incubator. The cells were passaged every two days to maintain the monolayer cell state.
The RAW264.7 cells in the logarithmic growth phase were seeded in a 24-well plate and placed in a 37 °C, 5% CO2 constant temperature incubator for culture. After 24 h, the culture medium was discarded. The blank group was added with 10% FBS DMEM 1 mL. The group was added with a medium containing 1 ug/mL LPS, and the experimental group was added with LPS and different concentrations of the target compound to make the final volume 1 mL. After 24 h of culture, the cell supernatant was taken and stored in a refrigerator at −20 °C for later use. The Griess kit was used to determine the concentration of NO in the supernatant, and a double antibody sandwich ELISA kit was used to detect TNF-α and IL-1β.

[3] = tested on: xylene-induced ear edema in mice; experiment: Xylene-induced ear edema in mice; assay type: in vivo, Kunming mice; conditions: for Degree of Edema: 30 μL xylene, 30 min, mean ± SD, n = 6; for Inhibition of ear swelling: xylene-induced ear edema
Experimental: To evaluate the differences in anti-inflammatory effects of the five compounds, the in vivo anti-inflammatory experiment was conducted based on the acute inflammation model of ear swelling induced by xylene. Under the inflammatory effect of 30 μL of xylene, the degree of ear swelling in the blank group and each experimental group was different. […] With an increase in dose the degree of ear swelling decreased, and the effect of ear swelling inhibition was more significant at high dose (100 mg/kg). Under the action of drugs, the five target compounds (1–5) have significant inhibitory effects on ear swelling (Figure 6).
Adult male Kunming mice (18–20 g) were bought from Liaoning Changsheng Biotechnology Co., Ltd. (Shenyang, China, License No. SCXK (Liao) 2015-0001). The breeding is carried out under standard conditions without pathogens (constant room temperature 20–22 °C, 55 ± 5% humidity, 12 h light–dark cycle and free access to food and water). The research protocol has been approved by the Animal Experiment Ethics Committee of the School of Pharmacy of Jilin University (20190048). All experimental operations follow the principles of laboratory animal care, and all animal experiments are conducted in accordance with the Guide for the Care and Use of Laboratory Animals (released by the National Research Council).
In this experiment, Kunming mice were randomly divided into two groups. One group was given 5% sodium carboxymethyl cellulose solution as the blank group, and the other group was given different concentrations of the target compound as the experimental group (high, medium and low doses); continuous intragastric administration was two days and the volume of intragastric administration was 0.2 mL. One hour after the last administration, 30 μL of xylene was evenly smeared on both sides of the mouse’s right ear. After 30 min, the mouse’s right ear was obviously red and swollen and the capillary congestion was severe. Cervical vertebrae were dislocated and sacrificed. The ears on both sides were quickly cut off, an 8 mm ear punch was used to punch holes at the same position on the ears on both sides and they were immediately weighed to calculate the weight difference.
The formula for the difference in ear weight is as follows:(2) D=Wr−Wl where Wr was the weight of the right ear and Wl was the weight of the left ear.
The formula for the inhibition rate of ear swelling is as follows:(3) Inhibition %=Dc−Dt/Dc×100% where Dc was the extent of ear edema of the control group and Dt was the extent of ear edema of the treatment group.

[4] = 25 mg/kg intragastric for two days
[5] = 50 mg/kg intragastric for two days
[6] = 100 mg/kg (high dose) intragastric
[7] = 100 mg/kg intragastric for two days

SMILES: CC(=O)Oc1ccc(/C=C/C(=O)N2C(=O)CN(C)C2=O)cc1 [Compound 4, (E)-4-(3-(3-methyl-2,5-dioxoimidazolidin-1-yl)-3-oxoprop-1-en-1-yl)phenyl acetate]
- IC50 [1]: 37 ± 4 µM
- inhibition of NO production [2]: showed a significant effect on NO
- inhibition of NO release [2]: significantly inhibit the release of NO; also recorded: reduced the release of NO
- Degree of Edema [3, 4]: 11.03 ± 0.32 mg
- Inhibition of ear swelling ([3]; 25 mg/kg intragastric): 9.96%
- Degree of Edema [3, 5]: 8.79 ± 0.76 mg
- Inhibition of ear swelling ([3]; 50 mg/kg intragastric): 28.24%
- Inhibition of ear swelling [3, 6]: 40.16%
- Degree of Edema [3, 7]: 7.33 ± 0.51 mg

SMILES: CN1CC(=O)N(C(=O)/C=C/c2ccco2)C1=O [Compound 2, (E)-3-(3-(furan-2-yl)acryloyl)-1-methylimidazolidine-2,4-dione]
- IC50 [1]: 56 ± 6 µM
- inhibition of NO production [2]: showed a significant effect on NO
- inhibition of NO release [2]: significantly inhibit the release of NO
- Degree of Edema [3, 4]: 8.68 ± 0.79 mg
- Inhibition of ear swelling ([3]; 25 mg/kg intragastric): 29.14%
- Degree of Edema [3, 5]: 7.96 ± 0.23 mg
- Inhibition of ear swelling ([3]; 50 mg/kg intragastric): 35.02%
- Inhibition of ear swelling [3, 6]: 49.47%
- Degree of Edema [3, 7]: 6.19 ± 1.13 mg
